For data set [1] the following is noted: P-4135F, cited from earlier work.
For data set [2] the following is noted: cited from earlier work.
The conditions of data set [3]: cited from earlier work. The source holds these as a separate data set.
Data set [4] can be described thus: Loading of doxorubicin and irinotecan into the same high AMPS beads (depletion, UV). Format: physicochemical. Conditions: 1 ml high AMPS beads. How it is done: Five samples of 500-700 μm High AMPS beads of Example 1 were loaded with doxorubicin and irinotecan following different approaches:
Sample 1: 3.5 mL of irinotecan solution (Campto, Pfizer, 20 mg.mL^−1=70 mg) was loaded into 1 mL of beads for 48 h, to saturate all the sulfonate groups. Then, the depleted solution was removed and the loaded beads were washed with a known volume of deionised water to remove the non-bound drug. The amount of irinotecan loaded into the beads was calculated by depletion, as a difference between the initial and final amounts in the depleted solution and all washings measured by UV at a wavelength of 369 nm. One mL of doxorubicin (Dabur oncology-25 mg.ml^−1) was later added to the same beads and the loading profile determined. […] All solutions were measured by UV at a wavelength of 483 nm wavelength and the amount of drug loaded into the beads determined by depletion. After the beads were loaded and washed with deionised water, in a second step, 1.25 ml of irinotecan solution (20 mg.mL^−1=25 mg) was added to the same beads and the loading profile determined. […]
To determine the loading profiles of all samples, an aliquot of 50 μl was removed from each vial at time 5, 15, 30, 45 min after the addition of each drug, diluted as necessary and read by UV at 483 and 369 nm. […]

For a further data set, the system named is HepG2 cells. In words: MTS cell viability assay with drug loaded beads. Format: cell-based, human. Conditions: Example 8, MTS, 72 hr exposure. The protocol:
An MTS assay was also conducted on the wells. At 72 hrs, the media from all wells was cautiously removed and each well washed three times with 200 μl sterile PBS. After adding 100 μl PRF media to each well, 20 μl of the prepared MTS solution (Promega) was also added. After a two hours incubation (37° C., 5% CO2) the plate was read at 490 nm using the plate reader and like the LDH assay, if the reading was too high the samples were diluted (75 μl PRF media: 75 μl samples).
Example 7 was repeated substantially as described, with an extended number of beads of one of the drugs. The results of the MTS assay, i.e. showing cell viability % (log scale) of HepG2 cells after 72 hr exposure, concluded as the mean of 6 samples, is shown in FIG. 19.
An MTS assay was used to assess the synergistic cytotoxic effects of dual loaded beads on HepG2 and PSN1 cells. The rapamycin loaded beads and the doxorubicin loaded beads were the same as those described in Example 7. The dual loaded doxorubicin and rapamycin loaded beads were loaded and analysed as described in Example 4 Method 2 using a 1 ml 60 mg/ml rapamycin solution and 1 ml 37.5 mg/ml doxorubicin solution.
The assay was prepared as described in Example 7 using HepG2 cells and additional plates of PSN1 cells for analysis.
An MTS assay (described in example 7) was conducted after 24, 48 and 72 hrs exposure. […]
Background: Formazan colour is commonly taken as a measure of viable cells.

Data set [5] is described as follows: Elution of doxorubicin and irinotecan from the same beads into 200 ml PBS. Format: physicochemical. Conditions: all samples. How it is done: After being sized, all samples were eluted. Here, the remaining loading solutions were removed using a Pasteur pipette and the loaded beads were transferred to brown flasks containing 200 ml of PBS (Inverclyde Biologicals). At time 5, 15, 30, 45, 60, 90 min, 2 h, 4 h and 24 h, an aliquot of elution medium (4 ml) was removed and replaced with 4 mL of fresh PBS to maintain the volume. All samples were read by UV at 483 and 369 nm wavelengths, using the corresponding standard curves to calculate the amount eluted at each time point.
These two assumptions were made for all calculations. All samples were read at both 483 nm and 369 nm wavelengths. Using the absorbance and the standard curve of doxorubicin at 483 nm, the concentration of doxorubicin in each sample was calculated and using these concentrations and the standard curve of doxorubicin at 369 nm, the absorbance of doxorubicin at this wavelength was calculated.

Data set [6] is described as follows: Loading of doxorubicin into ibuprofen-loaded low AMPS beads (depletion). The format is physicochemical.
Description: Ibuprofen and doxorubicin solutions were loaded into low AMPS beads simultaneously. In order to achieve this, one sample of 1 ml of 500-700 μm beads was loaded with ibuprofen (according to examples in WO2004073688). The excess packaging solution was removed using a Pasteur pipette and 2 ml of doxorubicin solution (5 mg.ml^−1) were added. After 24 h, a 50 μl aliquot was removed from the depleted solution and measured by UV at 263 nm and 483 nm. The amount of doxorubicin loaded into beads was calculated by depletion, as a difference between the initial and final amounts in the depleted solution (calculations explained below).
These two assumptions were made for all calculations. All samples were read at both wavelengths (263 nm and 483 nm). Using the absorbance at 483 nm the concentration of doxorubicin in each sample was calculated, then using these concentrations and the standard curve of doxorubicin at 263 nm, the absorbance of doxorubicin at 263 nm was calculated. By subtracting this value from the total absorbance at 263 nm, the concentration of ibuprofen, was calculated using the ibuprofen standard curve.
Initially, lyophilised beads as described in WO2004073688 were loaded with ibuprofen/ethanol solution by solvent evaporation and then rehydrated with water and autoclaved for 15 min at 121° C. […]
Data set [7] can be described thus: Rapamycin and doxorubicin loading into high AMPS beads by two methods. The format is physicochemical. Conditions: Method 2. The protocol:
Unloaded high AMPS bead slurry 1 ml was loaded with doxorubicin solution (5 ml of 10.07 mg/ml, target loading 50 mg/ml Bead) overnight. The doxorubicin-loaded beads were washed with 1 ml DMSO 5 times to remove extra water, and 1 ml 60 mg/mL rapamycin DMSO solution was mixed with the doxorubicin beads for about 30 min. Subsequently, following removal of extra rapamycin DMSO solution, the beads were washed with 5 ml saline until no white drug particles were observed.
1 ml Bead slurry was washed with 1 mL DMSO 5 times and mixed with 1 ml 60 mg/ml rapamycin DMSO solution for 30 min. The loaded beads were then washed with 5 ml saline until no further white drug particles were observed. […]
Doxorubicin loading test: The doxorubicin loading was measured by depletion method in either water or DMSO solution. The loading solution was taken and diluted 10 times and measured by UV at 483 nm to determine the concentration of doxorubicin residue in solution. […] The concentration of rapamycin was determined by UV at 279 nm. […]
Doxorubicin loss determination: The doxorubicin loss during DMSO washing of loaded beads before further loading of rapamycin (Method 2) was determined by measuring the accumulated DMSO washing solution in a volumetric flask at 483 nm. […]
Rapamycin and doxorubicin standard curve: The maximum absorbance of rapamycin is at wavelength 279 nm, which is overlapped with doxorubicin absorbance. […]

Data set [8] in a line: Ibuprofen and irinotecan loading into high AMPS beads. Format: physicochemical. The protocol:
Drug loading: The drug loading procedure is shown in FIG. 9, in which the unloaded high AMPS beads were washed with DMSO to remove the water trapped within the hydrogel. A mixture of ibuprofen solubilised in DMSO and castor oil as crystallisation inhibitor were subsequently mixed with the bead slurry, and kept for about 10 minutes. Following the removal of the loading solution, saline was used to wash the loaded beads until no drug particles nor large oil droplets were observed. The irinotecan loading was achieved by simply mixing the ibuprofen-loaded beads with irinotecan solution (10 mg/mL) by roller-mixing overnight. The final loaded beads were kept in the water solution as product.
1). Ibuprofen. The content of loaded ibuprofen was determined by an HPLC method. […] The collected DMSO solution was topped to the mark in a 10 ml volumetric flask, and the concentration of ibuprofen was measured by HPLC. […] The content of irinotecan in loaded beads was measured by depletion method. […] The loading solution was diluted with water and measured by UV at 369 nm. Compared to the standard curve, the concentration of irinotecan left in loading solution can be calculated.
To determinate the concentration of each component in a combined drug solution, the standard curves for absorption of predetermined concentrations of ibuprofen and irinotecan at 263, 272 and 369 nm in water were measured. […]

The nature of data set [9]: Elution of ibuprofen-irinotecan-loaded beads into PBS. Format: physicochemical. Conditions: after 5 hours, irinotecan alone, combination comparable. How it is done:
The elution of ibuprofen-irinotecan-loaded beads was carried out by mixing 0.24 ml beads with 200 ml PBS (Inverclyde, Bellshill, UK) and roller-mixed on a roller mixer. At certain time point, the solution (5 ml) was taken out for concentration determination by UV and same volume of fresh PBS was added to keep a sink condition.

The conditions of data set [10]: cited from earlier work. This is another data set of the same source.

Where two headings read alike, the source gives them in different places.

Consider `Nc1nc2c(c(=O)[nH]1)N(C=O)C(CNc1ccc(C(=O)N[C@@H](CCC(=O)O)C(=O)O)cc1)CN2` (some centres unmarked) [LV, leucovorin], for which, in data set [1] (pH 6.8), the initial drug loss entry is “about 60%” and the “time to complete release” value is not above 2 h. Moreover, the encapsulation rate in data set [2] (Eudragit P-4135F) was 55.4±2.7%. Moreover, the encapsulation rate in [2] (Eudragit RS100) was 81.4±8.6%.
For `O=c1[nH]cc(F)c(=O)[nH]1` [Sample 5-FU, 5-fluorouracil], the 5-FU release result in [1] (pH 6.8, within 4 h) is listed as “lower than 25%”. For the same compound, the “time of nearly immediate release” value in data set [1] (pH 7.4) is recorded as not above 15 min. The encapsulation efficiency is recorded as 19% in data set [3] (PLGA microparticles) and 30% in data set [3] (encapsulated with Paclitaxel). Further, the encapsulation rate in [2] (Eudragit P-4135F) was 48.3±2.0%; in data set [2] (Eudragit RS100) it was 60.3±9.7%.
`COc1cccc2c1C(=O)c1c(O)c3c(c(O)c1C2=O)C[C@@](O)(C(=O)CO)C[C@@H]3O[C@H]1C[C@H](N)[C@H](O)[C@H](C)O1` [doxorubicin]: in [4], the “maximum loading capacity of the beads” value is approximately 40 mg. Further, the “cytotoxicity when eluted individually” value in the data set on HepG2 cells is on record as “more cytotoxic to the cells than rapamycin”. The doxorubicin released in data set [5] (in 24 h) is listed as less than 25%. Besides, the “maximum amount of doxorubicin loaded into ibuprofen loaded beads” value in data set [6] (1 ml low AMPS beads, doxorubicin solution 5 mg/ml, 24 h) was 8.3 mg. For the same compound, the “maximum capacity of low AMPS beads for doxorubicin” value in data set [6] (loaded with this drug alone) was approximately 14 mg/mL. The “doxorubicin loss during DMSO washing before rapamycin loading” value in data set [7] is “about 6.71 mg/ml”.
Take `CCc1c2c(nc3ccc(OC(=O)N4CCC(N5CCCCC5)CC4)cc13)-c1cc3c(c(=O)n1C2)COC(=O)[C@]3(O)CC` [irinotecan]: the “maximum loading capacity of the beads” value in data set [4] was determined as 52 mg. In data set [5] (in <4 h), the irinotecan released is reported as more than 99 % mg. Further, the “maximum irinotecan loading capacity for unloaded beads” value in data set [8] lay in the range of 50 to 60 mg/mL. The irinotecan loading efficiency result in data set [8] (unloaded beads, below maximum loading capacity) is reported as “above 98%”. The irinotecan eluted in data set [9] is approximately 100%.
Consider heparin, for which the “initial burst release from the co-matrix” value in data set [10] (uncoated) is given as 32.7%; in data set [10] (with polyethylene glycol coatings, for 24 hr), 25.4%.

Values taken from patent US20110229572A1, “DELIVERY OF DRUG COMBINATIONS” (BIOCOMPATIBLES UK Limited, priority 2007, published 2011).
